target: HCV NS5b RNA dependent RNA polymerase (Hepatitis C virus genotype 1a, UniProt P27958); assay: HCV NS5b RNA dependent RNA polymerase inhibition (scintillation proximity assay); format: biochemical; conditions: not given
Procedure: Compounds of the present invention are evaluated for inhibition of HCV NS5b RNA dependent RNA polymerase activity in assays comprised of a suitable buffer (e.g. 20 mM Tris-HCl pH 7.6), primed or unprimed RNA templates, GTP, ATP, CTP, and UTP, MnCl2 or MgCl2, and reducing agent such as 10 mM dithiothreitol or 2-mercaptoethanol. The assay buffer may contain salts such as ammonium acetate, KCl, or NaCl, and nonionic or zwitterionic detergents such as Tween or CHAPS. The incorporation of nucleotides into the complementary RNA strand may be monitored by the incorporation of radiolabeled NTP (e.g. ^3H labeled GTP). Suitable RNA templates for de novo initiation in the presence of 20–50 μM GTP or ATP are the homopolymers poly rC and poly rU, respectively. Heteropolymer RNA templates with 1–3 cytidine (C) bases or 1–3 uridine (U) bases at the 3′ terminus of the template may also be used for de novo initiation. Primed RNA templates such as poly rC primed with oligo rG or oligo dG, and poly rA primed with oligo rU may also be used to detect polymerase activity. The primers may be any length greater than 10 bases. A biotin residue may be added to the 5′ end of the template or the 5′ end of the primer to capture the template and the newly synthesized, complementary strand on avidin coated spheres. One embodiment of this technology consists of a mixture of NS5b polymerase, a poly rC RNA template primed with 5′ biotinylated oligo rG, 20 mM Tris HCl pH 7.6, 100 mM ammonium acetate, 10 mM dithiothreitol, 2 mM CHAPS, 1 mM MgCl2, and 150–200 nM ^3H labeled GTP. Test compounds (inhibitors) may be incorporated in the reaction mixture with up to 10% DMSO. The reaction is run for various times (1–180 minutes) at 22–37° C., and stopped by the addition of 10–140 mM EDTA. Scintillation Proximity Assay avidin-coated beads (Amersham Pharmacia Biotech) are added to capture the ds RNA product; or the reaction mixtures may be transferred to avidin coated Flash Plates (Perkin Elmer Life Sciences). The incorporation of radiolabeled GTP into the complementary strand is measured in 96, 384, or 1536 well plates in scintillation counters such as the Wallac Microbeta and Packard TopCount.

Sequence of HCV NS5b RNA dependent RNA polymerase (P27958 2421-3011): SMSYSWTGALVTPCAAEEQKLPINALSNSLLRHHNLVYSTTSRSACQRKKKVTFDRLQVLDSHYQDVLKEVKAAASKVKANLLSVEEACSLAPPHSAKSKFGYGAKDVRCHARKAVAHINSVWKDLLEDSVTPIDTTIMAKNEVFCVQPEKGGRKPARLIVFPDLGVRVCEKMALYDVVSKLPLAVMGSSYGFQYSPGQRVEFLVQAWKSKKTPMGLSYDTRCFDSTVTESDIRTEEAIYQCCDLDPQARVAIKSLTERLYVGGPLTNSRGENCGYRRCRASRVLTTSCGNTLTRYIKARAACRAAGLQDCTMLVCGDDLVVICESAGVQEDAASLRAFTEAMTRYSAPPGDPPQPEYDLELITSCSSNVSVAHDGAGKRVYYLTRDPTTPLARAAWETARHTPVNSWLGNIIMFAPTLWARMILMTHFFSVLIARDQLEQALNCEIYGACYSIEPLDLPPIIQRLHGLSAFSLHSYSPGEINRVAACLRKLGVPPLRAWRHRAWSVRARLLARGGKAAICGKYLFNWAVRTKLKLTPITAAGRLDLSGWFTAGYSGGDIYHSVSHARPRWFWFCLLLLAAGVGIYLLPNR

SMILES | IC50 [µM]
Cc1ccccc1-c1ccc(/C=C(\NC(=O)c2ccccc2)C(=O)O)o1 [Compound 2] | < 10

same assay, conditions: concentration for 50% inhibition, class symbols; read-out: NS5B Inhibitory Activity

SMILES | IC50 [µM]
O=C(O)/C(=C/c1cccc(Oc2ccccc2Cl)c1)NC(=O)c1ccccc1 [Compound 1] | < 10
Cc1ccc(COc2ccc(/C=C(\NC(=O)c3ccccc3)C(=O)O)cc2)cc1 [Compound 3] | 11 to 30
O=C(O)/C(=C/c1ccc(-c2ccc3c(c2)OCO3)o1)NC(=O)c1ccccc1 [Compound 4] | < 10
O=C(O)/C(=C/c1ccc(-c2cc3ccccc3s2)o1)NC(=O)c1ccccc1 [Compound 5] | 11 to 30
O=C(O)/C(=C/c1ccc(Nc2ccccc2Cl)cc1)NC(=O)c1ccccc1 [Compound 6] | 11 to 30
CCS(=O)(=O)c1ccc(-c2ccc(/C=C(\NC(=O)c3ccccc3)C(=O)O)o2)cc1 [Compound 7] | > 30

The remaining lines, values ahead:

IC50 [µM] | SMILES
< 10 | O=C(O)/C(=C/c1ccc(F)c(-c2ccccc2Cl)c1)NC(=O)c1ccccc1 [Compound 8]
< 10 | O=C(O)/C(=C/c1csc(-c2ccccc2Cl)n1)NC(=O)c1ccccc1 [Compound 9]
< 10 | O=C(O)/C(=C/c1ncc(-c2ccccc2)o1)NC(=O)c1ccccc1 [Compound 10]
> 30 | O=C(O)/C(=C/c1cccc(-c2cccnc2)c1)NC(=O)c1ccccc1 [Compound 11]
> 30 | O=C(O)/C(=C/c1cnc(-c2ccccc2Cl)[nH]1)NC(=O)c1ccccc1 [Compound 12]
< 10 | O=C(O)/C(=C/c1ccc(Oc2ccccc2Br)cc1)NC(=O)c1ccccc1 [Compound 13]

— patent US7041690B2, “Inhibitors of HCV NS5B polymerase” (Pharmacia & Upjohn Company, LLC, priority 2002, dated 2006)
